In one experiment the target is IDO (Homo sapiens, UniProt P14902). Description: LLE_IDO_ABS_DR (IDO assay).
Chain of IDO (P14902 whole entry): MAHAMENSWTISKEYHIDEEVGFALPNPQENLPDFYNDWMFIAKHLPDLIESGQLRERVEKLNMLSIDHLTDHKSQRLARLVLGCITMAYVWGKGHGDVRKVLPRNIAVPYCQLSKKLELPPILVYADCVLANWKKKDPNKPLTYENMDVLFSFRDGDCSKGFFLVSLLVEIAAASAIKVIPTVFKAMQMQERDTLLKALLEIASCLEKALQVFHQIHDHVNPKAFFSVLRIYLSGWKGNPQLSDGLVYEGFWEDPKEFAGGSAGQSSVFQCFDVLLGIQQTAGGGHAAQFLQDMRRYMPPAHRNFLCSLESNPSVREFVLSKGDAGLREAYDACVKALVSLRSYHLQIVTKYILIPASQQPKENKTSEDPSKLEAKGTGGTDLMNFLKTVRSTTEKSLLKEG
Details: not given
Usually IC50 stands for the concentration that gives 50% inhibition. `Cc1ccc(NC(=O)Nc2cc(-c3ccccc3-c3nnn[nH]3)ccc2N(CC(C)C)CC(F)(F)F)cc1` [Example 475] registered an IC50 of 50 nM. Still for that read-out and setting: the figure for `Cc1ccc(NC(=O)Nc2cc(-c3cc(F)ccc3C(=O)O)ccc2N(CC(C)C)CC(F)(F)F)cc1` [Example 476] is 140 nM. For the compound `CN(c1ccc(-c2cc(F)ccc2C(=O)O)cc1NC(=O)Nc1ccccc1F)c1ccccc1C(C)(C)C` [Example 479], the midpoint of inhibition, the IC50, lay at 3800 nM.

Consider `CN(c1ccc(-c2ccccc2C(=O)O)cc1NC(=O)Nc1ccccc1F)c1ccccc1C(C)(C)C` [Example 480], for which 1840 nM corresponded to half-maximal inhibition (IC50). Still for that read-out and setting: the figure for `Cc1ccc(NC(=O)Nc2cc(-c3ccccc3C(=O)O)ccc2N(C)c2ccccc2C(C)(C)C)cc1` [Example 481] is 1840 nM. Same read-out and setting: the figure for `Cc1ccc(NC(=O)Nc2cc(-c3ccccc3-c3nnn[nH]3)ccc2N(CCC(F)(F)F)Cc2ccc(Cl)cc2Cl)cc1` [Example 505, 1-(4-((2,4-Dichlorobenzyl)(3,3,3-trifluoropropyl)amino)-2′-(1H-tetrazol-5-yl)-[1,1′-biphenyl]-3-yl)-3-(p-tolyl)urea] is 40 nM; for `Cc1ccc(NC(=O)Nc2cc(-c3ccccc3-c3nnn[nH]3)ccc2N(CCC(F)(F)F)Cc2ccccn2)cc1` [Example 506, 1-(4-((pyridin-2-ylmethyl)(3,3,3-trifluoropropyl)amino)-2′-(1H-tetrazol-5-yl)-[1,1′-biphenyl]-3-yl)-3-(p-tolyl)urea] it is 40 nM; for `CC(C)CN(c1ccc(-c2ccccc2C(=O)O)cc1NC(=O)Nc1ccccc1F)C1CCC(F)(F)CC1` [Example 510, 4′-((4,4-Difluorocyclohexyl)(isobutyl)amino)-3′-(3-(2-fluorophenyl)ureido)-[1,1′-biphenyl]-2-carboxylic acid] it is 1.38 nM.

For the compound `CC(C)CN(c1ccc(-c2ccccc2C(=O)O)cc1NC(=O)Nc1ccc(OC(F)(F)F)cc1)C1CCC(F)(F)CC1` [Example 511, 4′-((4,4-Difluorocyclohexyl)(isobutyl)amino)-3′-(3-(4-(trifluoromethoxy)phenyl)ureido)-[1,1′-biphenyl]-2-carboxylic acid], it took 8.1 nM to reach half-maximal inhibition (IC50). As to `CC(C)CN(c1ccc(-c2ccccc2C(=O)O)cc1NC(=O)Nc1ccc(C(F)(F)F)cc1)C1CCC(F)(F)CC1` [Example 513], the IC50 worked out at 10 nM.

For a further experiment, the target named is T1, Human IDO1 (Homo sapiens, UniProt P14902).
T1 construct: expressed in transfected cells; host or cells: HEK293
T1 sequence (P14902 whole entry): as above
Description: IDO Kynurenine Assay with Human IDO1/HEK293 Cells. It counts as cell-based. The following applies: read-out: HEK human IDO-1 (IC50). Here is the method:
IDO Kynurenine Assay with Human IDO1/HEK293 Cells
Human IDO1/HEK293 cells were seeded at 10,000 cells per 50 uL per well with RPMI/phenol red free media contains 10% FBS in a 384-well black wall clear bottom tissue culture plate (Matrix Technologies LLC) 125 nL of certain concentration of compound was then added to each well using ECHO liquid handling systems. The cells were incubated for 20 hours in 37° C. incubator with 5% CO2.
The compound treatments were stopped by adding Trichloroacetic Acid (Sigma-Aldrich) to a final concentration at 0.2%. The cell plate was further incubated at 50° C. for 30 minute. The equal volume supernatant (20 uL) and 0.2% (w/v) Ehrlich reagent (4-dimethylaminobenzaldehyde, Sigma-Aldrich) in glacial acetic acid were mixed in a new clear bottom 384-well plate. This plate was then incubated at room temperature for 30 minute. The absorbance at 490 nm was measured on Envision plate reader.
Compound IC50 values were calculated using the counts of 500 nM of a reference standard treatment as one hundred percent inhibition, and counts of no compound but DMSO treatment as zero percent inhibition.
Turning to `Cc1ccc(NC(=O)Nc2cc(-c3ccccc3-c3nnn[nH]3)ccc2N(CC(C)C)[C@H]2CC[C@@H](C(F)(F)F)CC2)cc1` [Example 305, 1-(4-(isobutyl(4-(trifluoromethyl)cyclohexyl)amino)-2′-(1H-tetrazol-5-yl)-[1,1′-biphenyl]-3-yl)-3-(p-tolyl) urea], the IC50 turned out to be 6 nM. `Cc1ccc(NC(=O)Nc2cc(-c3cc(F)ccc3C(=O)O)ccc2N(CC(C)C)C2CCC(C(F)(F)F)CC2)cc1` (stereo not shown) [Example 306, 5-fluoro-4′-(isobutyl(4-(trifluoromethyl)cyclohexyl)amino)-3′-(3-(p-tolyl)ureido)-[1,1′-biphenyl]-2-carboxylic acid]: the IC50 is 40 nM. Still for that read-out and setting: the figure for `Cc1ccc(NC(=O)Nc2cc(-c3ccccc3C(=O)O)ccc2N(CC(C)C)C2CCC(C(F)(F)F)CC2)cc1` (stereo not shown) [Example 307, 4′-(isobutyl(4-(trifluoromethyl)cyclohexyl)amino)-3′-(3-(p-tolyl)ureido)-[1,1′-biphenyl]-2-carboxylic acid] is 40 nM. The same measure, in the same setting: the figure for `Cc1cnc(NC(=O)Nc2cc(-c3ccccc3-c3nnn[nH]3)ccc2N(CC(C)C)CC(C)C)cn1` [Example 308, 1-(4-(diisobutylamino)-2′-(2H-tetrazol-5-yl)-[1,1′-biphenyl]-3-yl)-3-(5-methylpyrazin-2-yl)urea] is 270 nM. The same measure, in the same setting: the figure for `Cc1cccc(-c2ccc(N(CC(C)C)CC(C)C)c(NC(=O)Nc3ccc(OC(F)(F)F)cc3)c2)c1C(=O)O` [Example 309, 4′-(Diisobutylamino)-3-methyl-3′-(3-(4-(trifluoromethoxy)phenyl)ureido)-[1,1′-biphenyl]-2-carboxylic acid] is 4 nM; for `Cc1ccc(NC(=O)Nc2cc(-c3ccccc3-c3nnn[nH]3)ccc2N(CC(C)(F)F)C2CCCCC2)cc1` [Example 356, 1-(4-(cyclohexyl(2,2-difluoropropyl)amino)-2′-(1H-tetrazol-5-yl)-[1,1′-biphenyl]-3-yl)-3-(p-tolyl)urea] it is 4.06 nM. Consider `CC(C)CN(CC(C)C)c1ccc(-c2ccc(Cl)cc2C(=O)O)cc1NC(=O)Nc1ccc(C#N)nc1` [Example 359, 4-Chloro-3′-(3-(6-cyanopyridin-3-yl)ureido)-4′-(diisobutylamino)-[1,1′-biphenyl]-2-carboxylic acid], for which the IC50 was found to be 550 nM. With `CC(C)CN(CC(C)C)c1ccc(-c2ccc(Cl)cc2C(=O)O)cc1NC(=O)Nc1ccc(Cl)cc1F` [Example 360, 4-Chloro-3′-(3-(4-chloro-2-fluorophenyl)ureido)-4′-(diisobutylamino)-[1,1′-biphenyl]-2-carboxylic acid], the IC50 was determined as 20 nM. Regarding `Cc1cc(NC(=O)Nc2cc(-c3cc(F)ccc3C(=O)O)c(F)cc2N(CC(C)C)C2CCCCC2)on1` [Example 376], the IC50 was determined as 2.15 nM.

As for `Cc1cc(NC(=O)Nc2cc(-c3ccccc3C(=O)O)ccc2N(CC(C)C)C2CCCCC2)on1` [Example 377], the IC50 was 1.68 nM. Regarding `Cc1cc(NC(=O)Nc2cc(-c3cc(F)ccc3C(=O)O)c(F)cc2N(CC(C)C)[C@@H]2C[C@H]3CC[C@@H]2C3)no1` [Example 385], the IC50 was found to be 200 nM. On to `CC(C)CN(CC(C)C)c1ccc(-c2ccccc2-c2nnn[nH]2)cc1NC(=O)Nc1cncnc1` [Example 391], for which the IC50 was 280 nM. On the same count and under the same terms, the figure for `CC(C)CN(c1cc(F)c(-c2cc(F)ccc2C(=O)O)cc1NC(=O)Nc1ccc(C(F)(F)F)cc1F)C1CCCCC1` [Example 392] is 10 nM; for `CC(C)CN(c1cc(F)c(-c2cc(F)ccc2C(=O)O)cc1NC(=O)Nc1cc(C(F)(F)F)no1)C1CCCCC1` [Example 393] it is 2.07 nM; for `Cc1ccc(NC(=O)Nc2cc(-c3cc(F)ccc3C(=O)O)c(F)cc2N(CC(C)C)C2CCCCC2)cn1` [Example 394] it is 7.9 nM. On the same count and under the same terms, the figure for `Cc1ccc(NC(=O)Nc2cc(-c3ccccc3-c3nnn[nH]3)ccc2N(CC(C)C)CC(C)C)cn1` [Example 395] is 70 nM. The same measure, in the same setting: the figure for `Cc1cc(NC(=O)Nc2cc(-c3ccccc3-c3nnn[nH]3)ccc2N(CC(C)C)CC(C)C)on1` [Example 396] is 6.07 nM; for `CC(C)CN(c1ccc(-c2cc(F)ccc2C(=O)O)cc1NC(=O)Nc1cncnc1)C1CCCCC1` [Example 397] it is 10 nM. As to `CC(C)CN(CC(C)C)c1ccc(-c2ccccc2-c2nnn[nH]2)cc1NC(=O)Nc1cc(C(F)(F)F)no1` [Example 398], the IC50 was 9.69 nM. As to `Cc1ccc(NC(=O)Nc2cc(-c3cc(F)ccc3C(=O)O)ccc2N(CC(C)C)C2CCCCC2)cn1` [Example 399], the IC50 turned out to be 20 nM.

For the compound `CC(C)CN(c1ccc(-c2cc(F)ccc2C(=O)O)cc1NC(=O)Nc1cc(C(F)(F)F)no1)C1CCCCC1` [Example 400], the IC50 turned out to be 5.35 nM. As for `CC(C)CN(c1ccc(-c2cc(F)ccc2C(=O)O)cc1NC(=O)Nc1ccnnc1)C1CCCCC1` [Example 401], the IC50 came to 1180 nM. Take `CC(C)CN(c1cc(F)c(-c2cc(F)ccc2C(=O)O)cc1NC(=O)Nc1ccnnc1)C1CCCCC1` [Example 402]: the IC50 came to 4830 nM. With `CC(C)CN(c1cc(F)c(-c2cc(F)ccc2C(=O)O)cc1NC(=O)Nc1ccc2nccnc2c1)C1CCCCC1` [Example 403], the IC50 came out at 2.32 nM.

Values taken from US9758492B2, “IDO inhibitors” (Bristol-Myers Squibb Company, priority 2013, dated 2017).
